target: T1, Replicase polyprotein 1ab (Severe acute respiratory syndrome coronavirus 2, UniProt P0DTD1); experiment: Binding affinity to SARS-CoV-2 nsp13 assessed as dissociation constant by MST assay

| SMILES | Kd |
| --- | --- |
| Cn1cc(/C=N/NC(=O)c2ccc(CSc3cccc4cccnc34)cc2)cn1 | 46100 nM |

target: T1, Replicase polyprotein 1ab; experiment: Inhibition of SARS-CoV-2 nsp13 by FRET assay

| SMILES | IC50 |
| --- | --- |
| O=C(N/N=C/c1cc([N+](=O)[O-])ccc1Cl)c1ccc(COc2cccc3ccccc23)cc1 | > 10000 nM |
| O=C(N/N=C/c1cc([N+](=O)[O-])ccc1Cl)c1ccc(CSc2ccnc3ccccc23)cc1 | 760 nM |
| O=C(N/N=C/c1cc([N+](=O)[O-])ccc1Cl)c1ccc(CNc2cccc3ccccc23)cc1 | > 10000 nM |
| COc1cc(/C=N/NC(=O)c2ccc(CSc3cccc4cccnc34)cc2)ccc1O | 9190 nM |
| CSc1nnc(SCc2ccc(C(=O)N/N=C/c3cc([N+](=O)[O-])ccc3Cl)cc2)s1 | > 10000 nM |
| COc1ccc(/C=N/NC(=O)c2ccc(CSc3cccc4cccnc34)cc2)c(O)c1 | 5440 nM |
| O=C(N/N=C/c1ccc(F)nc1)c1ccc(CSc2cccc3cccnc23)cc1 | 660 nM |
| O=C(N/N=C/c1ccc(Cl)nc1)c1ccc(CSc2cccc3cccnc23)cc1 | 5100 nM |
| COc1ccc(/C=N/NC(=O)c2ccc(CSc3cccc4cccnc34)cc2)cc1OC | 4970 nM |
| O=C(N/N=C/c1cc([N+](=O)[O-])ccc1Cl)c1ccc(CSc2cccc3ccccc23)cc1 | > 10000 nM |
| O=C(N/N=C/c1cc2c(cc1[N+](=O)[O-])OCO2)c1ccc(CSc2cccc3cccnc23)cc1 | 430 nM |
| O=C(N/N=C/c1cc([N+](=O)[O-])ccc1Cl)c1ccc(CSc2ccccc2Br)cc1 | > 10000 nM |
| C/C(=N\NC(=O)c1ccc(CSc2cccc3cccnc23)cc1)c1ccc(F)nc1 | > 10000 nM |
| Cn1cc(/C=N/NC(=O)c2ccc(CSc3cccc4cccnc34)cc2)cn1 | 26800 nM |
| O=C(N/N=C/c1cccc(F)c1O)c1ccc(CSc2cccc3cccnc23)cc1 | 2980 nM |
| CC(C)NC(=O)c1ccc(/C=N/NC(=O)c2ccc(CSc3cccc4cccnc34)cc2)cc1 | 940 nM |
| O=C(N/N=C/c1cc(F)c(F)cc1O)c1ccc(CSc2cccc3cccnc23)cc1 | 2340 nM |
| O=C(N/N=C/c1ncccn1)c1ccc(CSc2cccc3cccnc23)cc1 | > 10000 nM |
| O=C(N/N=C/c1cc(O)c(Br)c(O)c1)c1ccc(CSc2cccc3cccnc23)cc1 | 2060 nM |
| O=C(N/N=C/c1ccc(Br)o1)c1ccc(CSc2cccc3cccnc23)cc1 | > 10000 nM |
| O=C(N/N=C/c1cccc2ccncc12)c1ccc(CSc2cccc3cccnc23)cc1 | 4330 nM |
| O=C(N/N=C/c1cc2ccncc2[nH]1)c1ccc(CSc2cccc3cccnc23)cc1 | > 10000 nM |
| O=C(N/N=C/c1ccc(F)cc1)c1ccc(CSc2cccc3cccnc23)cc1 | 2570 nM |
| O=C(N/N=C/c1c(O)ccc2ccccc12)c1ccc(CSc2cccc3cccnc23)cc1 | 3920 nM |
| O=C(N/N=C/c1c(Cl)ccnc1Cl)c1ccc(CSc2cccc3cccnc23)cc1 | 480 nM |
| COc1cc(F)ccc1/C=N/NC(=O)c1ccc(CSc2cccc3cccnc23)cc1 | 2850 nM |
| O=C(N/N=C/c1ccc(F)cc1O)c1ccc(CSc2cccc3cccnc23)cc1 | 2700 nM |
| O=C(N/N=C/c1cc([N+](=O)[O-])ccc1Cl)c1ccc(CSc2cccc3cccnc23)cc1 | 280 nM |
| O=C(N/N=C/c1c(Cl)nc(Cl)nc1Cl)c1ccc(CSc2cccc3cccnc23)cc1 | 2940 nM |
| COc1ccc(/C=N/NC(=O)c2ccc(CSc3cccc4cccnc34)cc2)cc1 | 960 nM |
